≈ marks a conversion by molar mass, not a printed value. Read-outs that look alike come from different tables or passages of the source.
Assays:
[1] = tested on: E. coli K12 wt; test: MIC, standard broth microdilution assay; format: cell-based; conditions: LB broth, 10^5 cells per well, 1 mM IPTG
Experimental: (§1) The ASKA strains of interest are validated for functional expression of the enzyme. If the protein is not expressed from a given expression vector the ORF is recloned. A strain overexpressing the activating enzyme from the ASKA library is then tested with the hit compound. If the hit has greater activity against this overexpressing strain as compared to the wild type, this indicates a prodrug. The test is performed in a standard broth microdilution assay for MIC determination. Hits with the lowest wild type MIC are then examined.
(§2) Cells were tested in a standard broth microdilution assay, inoculating 10^5 cells per well of a microtiter plate in LB broth. Overexpression and deletion strains were compared to the appropriate isogenic wild type. IPTG was added at 1 mM to growth medium. Experiments involving nfnB and nfsA strains were performed under anaerobic conditions.

[2] = tested on: E. coli K12 overexpressing activating enzyme; test: MIC, standard broth microdilution assay, overexpression strains; format: cell-based
Experimental: as §1, §2

[3] = tested on: E. coli K12 Δactivating enzyme; test: MIC, standard broth microdilution assay, deletion strains; format: cell-based; conditions: Escherichia coli, anaerobic conditions
Experimental: as §1, §2

[4] = tested on: E. coli K12 ΔtolC overexpressing activating enzyme; test: MIC, standard broth microdilution assay, tolC deletion (MDR efflux); format: cell-based
Text: Prodrugs are activated by activating enzymes into reactive molecules that bind to their targets, creating an irreversible sink. This may lead to insensitivity of the overall process to MDR efflux. In order to test this possibility, an E. coli K12 with a deletion in tolC coding for the outer membrane porin that is a component of the transenvelope MDRs was utilized (Li (2004) Drugs 64:159-204). This strain is highly sensitive to antibiotics (Tegos et al. (2002) Antimicrob. Agents Chemother. 46:3133-3141). […] The substrate specificity of AcrAB is remarkably broad, and includes essentially all small molecular weight amphipathic compounds. The AcrAB substrates include anions (SDS, fatty acids, bile acids), neutral compounds (macrolides, chloramphenicol, tetracyclines) and cations or compounds that can form cations (acridine, quaternary compound antiseptics, fluoroquinolones). AcrAB can extrude a natural broad spectrum antibiotics that evolved for good penetration, chloramphenicol and tetracycline; and also extrude synthetic broad-spectrums, the fluoroquinolones.
as §2

[5] = tested on: wild type bacterial strain (E. coli), stationary state; test: Dose-dependent killing of stationary state cells, plating and colony count; format: cell-based; conditions: anaerobic, 6 hours incubation, biphasic killing
Experimental: FIG. 10 is a graphical representation of the dose-dependent killing of E. coli by metronidazole. Stationary phase cells grown in LB medium in the presence of 1 mM IPTG under anaerobic conditions were challenged for 6 hrs with increasing concentrations of metronidazole and then plated on LB agar plates.
The killing ability of metronidazole was examined. The wild type bacterial strain was grown to stationary state under anaerobic conditions, and dose-dependent killing after incubation with metronidazole for 6 hours was detected by plating and colony count (FIG. 10). […] This is the first observation of a sterilizing activity of an antibiotic against a stationary state bacterial population. Previously, it was only possible to kill persisters and sterilize an infection with peracetic acid (FIG. 2); (Spoering et al. (2001) J. Bacteriol. 183:6746-6751).

[6] = tested on: strain overexpressing the activating enzyme, NfnB or NfsA; test: as above; format: cell-based, E. coli; conditions: for sterilization of the population: nfnB^+ strain, limit of detection 6 logs of killing, <10 cells/ml
[7] = tested on: P. aeruginosa; test: Killing of logarithmic, stationary and biofilm cultures, colony count; format: cell-based; conditions: for percentage of live cells: 5 μg/ml, 6 hrs
Experimental: Persister cells in planktonic and biofilm populations are characterized for their antibiotic sensitivity in this example. Several bactericidal antimicrobials were chosen to test the resistance of P. aeruginosa to killing—ofloxacin, a fluoroquinolone; tobramycin, an aminoglycoside; carbenicillin, a β-lactam; and peracetic acid, a disinfectant oxidant (Spoering et al. (2001) J. Bacteriol. 183:6746-6751). Biofilms were grown essentially by the method of Ceri (Ceri et al. (1999) J. Clin. Microbiol. 37:1771-1776) and as described in Brooun et al. (2000) Antimicrob. Agents Chemother. 44:640-646. The device used for biofilm formation is a platform carrying 96 polystyrene pegs that fit in a microtiter plate. Preformed biofilms were incubated in the presence of an antimicrobial agent, and survival was measured after disrupting the biofilms by colony count.
Logarithmic state, stationary and biofilm cultures were challenged with carbenicillin. Carbenicillin is a bactericidal antibiotic that, similarly to most β-lactams, only kills rapidly growing cells (Tuomanen et al. (1986) Scand. J. Gastroenterol. Suppl:10-14). […] The amount of killing of logarithmic cells approached a plateau at concentrations above 1.67×MIC, indicating the presence of a persister subpopulation. These 0.1% cells in the rapidly growing logarithmic culture were invulnerable to killing by carbenicillin at 600 μg/ml.
Unlike carbenicillin, ofloxacin can kill non-growing cells (Brooun et al. (2000) Antimicrob. Agents Chemother. 44:640-646). Logarithmic, stationary and biofilm cultures were challenged with ofloxacin over a wide range of concentrations, from 1×MIC (0.5 μg/ml) to 30×MIC (15 μg/ml). After a 6 hrs incubation time with the antibiotic, viability was determined by colony count. The majority of cells in the three populations examined were killed at low concentrations of ofloxacin (FIG. 3B). The killing in all three cultures was distinctly biphasic, indicating the presence of persister cells. The levels of persisters were dramatically higher in the dense stationary planktonic and biofilm cultures as compared to logarithmic cells. […] At 5 μg/ml ofloxacin, which is the clinically achievable concentration (Schulz et al. (1997) Pharmazie 52:895-911), the percentage of live cells was 0.001% in the logarithmic population, 0.1% in the biofilm and 2.5% in the stationary culture (FIG. 3B).
Tobramycin at 50 μg/ml (the maximal clinically achievable concentration is 10 μg/ml), (Schulz et al. (1997) Pharmazie 52:895-911) eliminated 90% of the biofilm cells, and the remaining population declined gradually with increasing amounts of the antibiotic. At high concentrations surviving persisters became apparent. Tobramycin was ineffective against stationary planktonic cells, apparently due to the dependence of killing of growth.
Peracetic acid, an oxidizing disinfectant, was used in order to test the ability of a sterilizing agent to act against persisters. […] Similar results showing biphasic killing, and high level of persisters in stationary and biofilm populations, also were obtained with S. aureus and E. coli (Keren et al. (2004) FEMS Microbiol. Lett. 230:13-18).

[8] = tested on: P. aeruginosa; test: MIC; format: cell-based; conditions: Pseudomonas aeruginosa; 1×MIC
[9] = Schulz et al. (1997); cited from earlier work
[10] = tested on: E. coli K12; test: Growth/no growth control wells (Z′-factor), OD600; format: cell-based
Experimental: The general procedure to establish the Z′-factor was tested. Since the output of the screening is a typical growth/no growth assay, this was performed by comparing growth in control wells to those containing a model antimicrobial, ciprofloxacin at 30 μg/ml. E. coli K12 were cultured in LB medium, and exponentially-growing cells were dispensed at 10^6/ml in 384-well microtiter plates, 30 μl/well. Six plates were used in this experiment. Ciprofloxacin was added to half of the wells (3 μl in LB, bringing the final volume to 33 μl). After an overnight incubation at 37 C, the OD600 of the plates were read, and the values of each well were used to calculate Z′-factor: Z′=1−(3SD++3SD−)/IAve+−Ave−I, where: SD+=positive control standard deviation; SD−=negative control standard deviation; Ave+=positive control average; and Ave−=negative control average). The following table for Z′-factor interpretation was used:
Before beginning the screen, a Z′-test was run. This was conducted by comparing growth in negative control wells to those with the prodrug AZT at 5 μg/ml. E. coli K12 cells were cultured in LB medium, and exponentially-growing cells were dispensed at 10^5/ml in 384-well microtiter plates, 30 μl/well. Four plates were used in this experiment. After an overnight incubation at 37° C., the OD600 of the plates were read, and the values of each well were used to calculate Z′-factor: […]

[11] = tested on: E. coli K12 knockout pool (BacPool) and wild type; test: Prodrug screen, growth/no growth of BacPool knockout mix versus wild type; format: cell-based; conditions: compounds at about 46-50 μg/ml, OD600 after overnight incubation
Text: A complete, ordered E. coli K12 knockout library of 4320 genes and predicted ORFs (the Keio library) was used (Baba et al. (2006). Mol. Systems Biol. 2:2006.0008). The knockouts were constructed using the Wanner method with a kanamycin cassette replacing the ORFs (Datsenko et al. (2000) Proc. Natl. Acad. Sci. USA 97:6640-6645). All strains of this library were combined in a mix BacPool1) for screening. This permitted screening of the library against all strains simultaneously, instead of screening a full industry-size library against each of the individual E. coli 4×10^3 knockout strains.
The library mix was prepared by first culturing all strains overnight in LB medium, and then adding equal aliquots into a tube. This material was then mixed, dispensed in vials and stored at −80° C. For the screen, one vial was thawed, diluted to 10^5 cells/ml in LB, and dispensed into 384 well microtiter plates. The compounds were added from DMSO stocks at a final concentration of 46 μg/ml. The same compounds were added to plates containing the wild type isogenic control. Screening was performed at the Harvard NSRB/NERCE screening facility that host a collection of 150,000 compounds (see Tables 1A and 1B). All screens at NSRB/NERCE were performed in duplicate, which strongly decreases the rate of false positives and negatives. For each tested molecule there are three possible scenarios when scoring for growth/no growth:
Growth in both the BacPool and K12 wells: indicates lack of antimicrobial activity;
Growth inhibition in both the BacPool and K12 wells: a possible antibiotic (direct activity) or generally toxic compound is present, but is not a prodrug; or
Growth of a BacPool well and no growth of the K12 well: a prodrug hit.
After an overnight incubation of plates at 37° C., the plates were read at OD600. Compounds that had no effect on the growth of the mix and inhibited the growth of the wild type were recorded as hits. The wells with growth indicated a prodrug hit that is not converted into a drug by a particular deletion mutant in the mix. The mutant strain is then identified in a secondary screen (see Example 2).
Yet another screen was performed on 147,500 compounds, using the protocol described below. […]
An E. coli KanR culture was grown in LB broth containing 50 μg/ml Kanamycin for 20 hrs at 37° C. in a shaking incubator. […] The plates were then incubated for 20 hrs at 37° C., and then the plates were read for Optical Density at 600 nm and were scored for growth/no growth. […]
Hits were identified by calculating the % of inhibition of growth of E. coli measured by OD600. The data were analyzed as follows: negative controls (N), positive controls (P), and compounds (X) ODs were separately averaged and the resulting means were used to calculate % of inhibition of E. coli growth: […]

With `Cc1ncc([N+](=O)[O-])n1CCO` [Metronidazole] the MIC ([1]; Escherichia coli, K12WT, read-out: MIC) was greater than 500 µg/mL, the MIC [1] was 563 µg/mL (≈ 3290 µM) and the “sensitivity of the overexpression strain as compared to the wild type control” value ([2]; E. coli overexpressing NfnB) was “greater than 50 fold”. The MIC ([2]; Escherichia coli) was 8.8 µg/mL (≈ 51.4 µM), the MIC ([2]; nfnB^+ overexpressing strain, 1 mM IPTG, anaerobic conditions) was “nfnB^+ 8.8 μg/ml” and the MIC ([2]; nfsA^+ overexpressing strain, 1 mM IPTG, anaerobic conditions) was “nfsA^+ 8.8 μg/ml”. The MIC ([2]; nfsA^+ overexpressing strain, 1 mM IPTG, anaerobic conditions, listed as metronidazole) was 8.8 µg/mL (≈ 51.4 µM), the MIC ([3]; nfnB^− deletion strain) was 1120 µg/mL (≈ 6570 µM) and the MIC ([3]; nfsA^− deletion strain) was 2250 µg/mL (≈ 13100 µM). The MIC ([4]; Escherichia coli) was 8.8 µg/mL (≈ 51.4 µM), the MIC ([4]; ΔtolC, nfsA^+ overexpressing strain) was “nfsA^+ 8.8 μg/ml” and the tolerant persister cells [5] was “about 1%”. For the same compound, the “sterilization of the population” value [6] was “completely “sterilized””, the “sterilization of the population” value ([6]; listed as metronidazole) was “complete sterilization” and the surviving persisters ([6]; strain overexpressing NfnB or NfsA, stationary state, 6 hours) was “no surviving persisters were detected”.

In the case of `NC[C@H]1O[C@H](O[C@H]2[C@H](O)[C@@H](O[C@H]3O[C@H](CO)[C@@H](O)[C@H](N)[C@H]3O)[C@H](N)C[C@@H]2N)[C@H](N)C[C@@H]1O` [tobramycin], the biofilm cells eliminated ([7]; biofilm, 50 μg/ml) is reported as 90%, the logarithmic persisters ([7]; logarithmic cells, 1 to 1500 μg/ml) is reported as “no logarithmic persisters were detected” and the “killing of stationary cells” value ([7]; stationary planktonic cells) is reported as “ineffective”. For the same compound, the MIC [8] was 1 µg/mL (≈ 2.14 µM) and the “(maximal) clinically achievable concentration” value [9] was 10 µg/mL.

For `O=C(O)c1cn(C2CC2)c2cc(N3CCNCC3)c(F)cc2c1=O` [ciprofloxacin], the “growth in wells with antibiotic” value ([10]; 30 μg/ml, overnight at 37 C) was “no case of substantial growth”.

In the case of `Cc1cn([C@H]2C[C@H](N=[N+]=[N-])[C@@H](CO)O2)c(=O)[nH]c1=O` [zidovudine], the “screen outcome (prodrug hit / direct activity)” value [11] is reported as “prodrug hits” and the “inhibition of E. coli growth” value ([10]; positive control at 5 μg/ml) is reported as “complete inhibition”.

With `CC1COc2c(N3CCN(C)CC3)c(F)cc3c(=O)c(C(=O)O)cn1c23` (stereo not shown) [ofloxacin] the “percentage of live cells” value ([7]; biofilm) was 0.1%, the “percentage of live cells” value ([7]; logarithmic population) was 0.001% and the “percentage of live cells” value ([7]; stationary culture) was 2.5%. For the same compound, the MIC [8] was 0.5 µg/mL (≈ 1.38 µM) and the “(maximal) clinically achievable concentration” value [9] was 5 µg/mL.
